Like-named read-outs stand apart in the source and are kept apart here.
Columns and labels:
HGF mRNA [1] = test: Real-time PCR of HGF mRNA in MDA-MB-231 cells; format: cell-based, human; conditions: in vitro
Procedure: (§1) In vitro, MDA-MB-231 cells were prepared as described above. […] Tumors were obtained from three mice per group at 0, 3, 6, 9, and 12 days. The total RNA was extracted using an RNA isolation kit (Takara, Shiga, Japan) according to the manufacturer’s instructions. cDNA was synthesized from 2 μg of RNA using a reverse transcriptase M-MLV synthesis kit (Takara). Real-time PCR was performed using the MyiQ5 real-time PCR detection system (Bio-Rad) with SYBR Premix Ex Taq (Takara). The PCR products for human β-actin, […], and HGF were synthesized with the primer pairs FP (forward primer) 5′-[…]-3′ and RP (reverse primer) 5′-[…]-3′ (β-actin, Gene ID: 60), FP 5′-[…]-3′ and RP 5′-[…]-3′ (MET, Gene ID: 4233), as well as FP 5′-[…]-3′ and RP 5′-[…]-3′ (HGF, Gene ID: 3082). All primers were purchased from AuGCT DNA-SYN Biotechnology Co., Ltd. (Dalian, China). Samples were run in triplicate under the following conditions: an initial denaturation for 30 s at 95 °C, followed by 45 cycles of 15 s at 95 °C, 30 s at 60 °C, and 33 s at 72 °C. The levels of gene expression in each sample were normalized to β-actin mRNA.

MDA-MB-231 cells = conditions: in vitro, cited from earlier work
[2] = Pharmacokinetic study in tumor-bearing nude mice (LC-MS/MS); format: in vivo; conditions: plasma; for AUC(0-inf) / AUC(0-t) / Cmax / Tmax / half-life / MRT: nude, mouse; for MRT: read-out: MRT (mean resident time)
Procedure: Data processing was performed with Phoenix WinNonlin 8.1.0.3530 (Pharsight Corporation, Mountain View, CA, USA).

HGF mRNA [3] = test: Real-time PCR of HGF mRNA in MDA-MB-231 xenograft tumors; format: in vivo, nude mice (MDA-MB-231 human breast cancer xenograft); set-up: dose or concentration left out as unconfirmed; conditions: tumors at 0, 3, 6, 9, 12 days
Procedure: as §1

[4] = test system: MDA-MB-231 xenograft tumors; test: Tumor growth inhibition assay, MDA-MB-231 tumor xenograft model; format: in vivo, BALB/c nude mice; conditions: for tumor inhibitory rate: day 18, n = 6; for mean tumor volume: day 18, vehicle group 285.00 ± 30.82 mm^3
Procedure: MDA-MB-231 cells (2 × 10^7) were suspended in 200 μL of PBS (pH 7.4) and were inoculated subcutaneously into the second mammary fat pads of the nude mice. The tumor diameter was measured with a vernier caliper and converted into tumor volume using the formula 1/2 × A × B^2 (A = larger diameter, B = smaller diameter). The treatment was started when the average tumor volume reached 50 mm^3.
Xenograft mice were randomly divided into three groups, with six in each group. […] The blank control group received only the vehicle solution. The tumor size and body weight were measured every three days. After 18 days of treatment, the animals were euthanized by cervical displacement. The tumors were collected after the final treatment and frozen at −80 °C until use.

p-MET [5] = test: Immunohistochemical staining (IOD) of p-MET in tumor tissue; format: in vivo, nude mice (MDA-MB-231 human breast cancer xenograft); conditions: 15 and 50 mg/kg for 18 days
MET = conditions: cited from earlier work
MET mRNA [6] = test system: MET mRNA; set-up: species or system nude mice (MDA-MB-231 human breast cancer xenograft); conditions: in vivo
HGF = test: Immunohistochemical staining (IOD) of HGF in tumor tissue; format: in vivo, nude mice (MDA-MB-231 human breast cancer xenograft); conditions: 15 and 50 mg/kg for 18 days
Procedure: After the paraffin sections of tumors were deparaffinized, rehydrated, and washed with PBS (pH 7.4), antigen retrieval was performed by boiling the sections in 10 mmol/L sodium citrate buffer (pH 6.0) in the microwave for 4 min. The endogenous peroxidase activity was quenched by placing the slides in 3% hydrogen peroxide in methanol. The slides were then blocked with 3% BSA-PBS, followed by incubation with a 1:425 dilution of the primary antibody of p-MET and HGF (Cell Signaling Technology, Danvers, MA, USA) overnight at 4 °C. Thereafter, the detection was performed using a biotin-conjugated secondary antibody and a streptavidin-horseradish peroxidase conjugate (SA-HRP), followed by colorimetric detection using diaminobenzidine (DAB). The sections were counterstained with hematoxylin and stabilized with a mounting medium. The immunohistochemical images with integrated optical density (IOD) of positive expression, which reflected the distribution characteristics of anti-p-MET and anti-HGF positive stained area in tumor tissues, were quantitatively analyzed using Image-Pro Plus version 6.0 (Media Cybernetics, Inc., Silver Spring, MD, USA).

p-MET [7] = conditions: cited from earlier work
MET mRNA [8] = test: Real-time PCR of MET mRNA in MDA-MB-231 cells; format: cell-based, human; conditions: in vitro
Procedure: as §1

SMILES: COc1cc2c(Oc3ccc(NC(=O)C4(C(=O)Nc5ccc(F)cc5)CC4)cc3F)ccnc2cc1OCCCN1CCOCC1 [Foretinib]
- mRNA expression level of HGF (HGF mRNA [1]): effectively suppressed
- apoptosis (MDA-MB-231 cells; MDA-MB-231 cells): induce marked apoptosis
- cell cycle arrest (MDA-MB-231 cells; MDA-MB-231 cells): arrest cancer cells mainly in the G2/M phase
- cell viability of MDA-MB-231 (MDA-MB-231 cells): can decrease the cell viability
- AUC(0-inf) ([2]; single oral dose 2 mg/kg): 407 ± 63.4 ng·h/mL
- AUC(0-t) ([2]; single oral dose 2 mg/kg): 366 ± 76.4 ng·h/mL
- Cmax ([2]; single oral dose 2 mg/kg): 22.2 ± 11.2 ng/mL
- Tmax ([2]; single oral dose 2 mg/kg): 4 h
- half-life ([2]; single oral dose 2 mg/kg): 15.1 ± 2.49 h
- MRT ([2]; single oral dose 2 mg/kg): 20.1 ± 5.05 h
- AUC(0-inf) ([2]; single oral dose 10 mg/kg): 7260 ± 108 ng·h/mL
- AUC(0-t) ([2]; single oral dose 10 mg/kg): 6210 ± 423 ng·h/mL
- Cmax ([2]; single oral dose 10 mg/kg): 334 ± 107 ng/mL
- Tmax ([2]; single oral dose 10 mg/kg): 2 h
- half-life ([2]; single oral dose 10 mg/kg): 19.9 ± 6.72 h
- MRT ([2]; single oral dose 10 mg/kg): 25.1 ± 8.36 h
- AUC(0-inf) ([2]; single oral dose 50 mg/kg): 13000 ng·h/mL
- AUC(0-t) ([2]; single oral dose 50 mg/kg): 12600 ng·h/mL
- Cmax ([2]; single oral dose 50 mg/kg): 1430 ± 744 ng/mL
- Tmax ([2]; single oral dose 50 mg/kg): 0.5 h
- half-life ([2]; single oral dose 50 mg/kg): 9.48 ± 0.045 h
- MRT ([2]; single oral dose 50 mg/kg): 13.3 ± 0.73 h
- Vd (volume of distribution) ([2]; single oral dose 2 mg/kg): 109.72 ± 34.73 L/kg
- k (elimination constant) ([2]; single oral dose 2 mg/kg): 0.046 ± 0.008 h⁻¹
- Vd (volume of distribution) ([2]; single oral dose 10 mg/kg): 39.76 ± 13.95 L/kg
- k (elimination constant) ([2]; single oral dose 10 mg/kg): 0.037 ± 0.012 h⁻¹
- Vd (volume of distribution) ([2]; single oral dose 50 mg/kg): 60.90 ± 31.53 L/kg
- k (elimination constant) ([2]; single oral dose 50 mg/kg): 0.073 ± 0.0003 h⁻¹
- mRNA expression level of HGF (HGF mRNA [3]): effectively suppressed
- tumor inhibitory rate ([4]; 15 mg/kg/day intragastric): 42.79 ± 8.52%
- tumor inhibitory rate ([4]; 50 mg/kg/day intragastric): 79.16 ± 4.58%
- mean tumor volume ([4]; high dose group (50 mg/kg/day)): 80.67 ± 17.00 mm^3
- mean tumor volume ([4]; low dose group (15 mg/kg/day)): 220.00 ± 70.14 mm^3
- p-MET expression in the tumor tissues (IHC staining, IOD) (p-MET [5]): decreased in a dose-dependent manner
- expression of MET in MDA-MB-231 (MET): remained unchanged
- mRNA expression level of MET (MET mRNA [6]): effectively suppressed
- HGF expression in the tumor tissues (IHC staining, IOD) (HGF): decreased in a dose-dependent manner
- expression of p-MET in MDA-MB-231 (p-MET [7]): remarkably inhibit
- mRNA expression level of MET (MET mRNA [8]): effectively suppressed

Source: PMC9821162 (International Journal of Molecular Sciences, 2023)
